From article PMC8525948 (Drug Delivery, 2021)
Counter-ions that a name gives are not always drawn. Each block holds one molecule with its values, some of them ahead of it.

Legend:
[1] = In vivo pharmacokinetic study in rabbits: plasma CPT11
Experimental: Plasma samples were stored at −80 °C before the high-performance liquid chromatographic (HPLC) analysis as described below. PK parameters are presented as the mean and standard deviation (SD) from individual rabbits in each group and were estimated through a noncompartmental analysis. The terminal elimination rate constant (Ke) was estimated from the slope of the log-linear phase of declining plasma concentrations of an […] versus time graph. The half-life (T1/2) was calculated using the following equation: T1/2 = ln2/Ke. The area under the concentration-time curve from beginning to the last time point (AUC0→last) was calculated using the trapezoidal method. Summation of AUC0→last and the concentration at the last measured point divided by Ke yielded AUC0→∞. Clearance (CL) was calculated by dividing the dose by AUC0→∞, and the volume of distribution (V) was determined by dividing CL by Ke. The absolute bioavailability (FAB) and relative bioavailability (FRB) were respectively calculated according to Equations (1) and (2), respectively (1) FAB=[AUC]poDIV/[AUC]IVDpo×100 where [AUC]po and [AUC]IV are the area under the plasma concentration curves (AUCs) after oral and intravenous administration. DIV and Dpo are the doses after […] administration, respectively. (2) FRB=[AUC]ADB/[AUC]BDA×100
where AUC for a LBSNENPs formulation [AUC]A and the AUC for the same drug in solution [AUC]B after oral administration were compared. DB and DA are the doses for solution and LBSNENPs formulation, respectively.
After centrifugation at 13,000 rpm for 30 min at 4 °C, 1.2 mL of ethyl acetate was collected, and then subjected to evaporation under N2 gas at 50 °C. The mobile phase (200 μL) was added to reconstitute the dried residual, vortexed for 5 min, and then centrifuged at 10^4 rpm and 25 °C for 3 min. The supernatant (180 µL) was collected, and 50 µL was injected into the HPLC system for analysis.

[2] = In vitro release, USP dissolution apparatus 2, simulated gastric fluid pH 1.2; assay type: physicochemical; conditions: for Dissolution from PC90C10P0 in simulated gastric acid solution: within 0.5 h / plateau at 0.5 h, CPT11 40 mg/g, inhibitors 80 mg/g
Experimental: The temperature of the dissolution medium was maintained at 37 ± 0.5 °C. Aliquots of 5 mL of sample were withdrawn for the assay at predetermined time intervals and replaced with the same volume of fresh medium.

[3] = Solubility (loading amount) in 1 g of optimal LBSNENP PC90C10P0
[4] = Droplet size, PDI and appearance of nanoemulsions (LBSNENAs) after self-nanoemulsifying; assay type: physicochemical; conditions: PC90C10P0 loaded with the named substance at its solubility; 25 °C
Experimental: After self-nanoemulsifying LBSNENPs were placed in double-distilled (DD) water, the average particle size and size distribution of the so-obtained LBSNENAs were measured at a scattering angle of 90° with an N5 submicron particle size analyzer (Beckman Coulter, Brea, CA) at 25 °C, and the intensity autocorrelation of the sample was in a range of 5 × 10^4–10^6. The average diameter and polydispersity index (PDI) of three measurements were reported. […] Each data point is the mean of at least three individual trials.

[5] = background statement, no reference given; cited from earlier work
[6] = New Zealand white, rabbit, in vivo, iv, 4 mg/kg

Molecule: CCc1c2c(nc3ccc(OC(=O)N4CCC(N5CCCCC5)CC4)cc13)-c1cc3c(c(=O)n1C2)COC(=O)[C@]3(O)CC [CPT11, Irinotecan hydrochloride]
FAB of CPT11 ([1]; I.V. (4 mg/kg), reference group): 100%
AUC(0-inf) [1, 6]: 287 ± 104 ng·h/mL
AUC(0-t) [1, 6]: 287 ± 104 ng·h/mL
Cmax [1, 6]: 341 ± 98.6 ng/mL
Dissolution from PC90C10P0 in simulated gastric acid solution [2]: 100%
Solubility (loading amount) in 1 g of PC90C10P0 [3]: 40 mg/g
Mean droplet size of nanoemulsion after self-nanoemulsifying [4]: 157.3 ± 2.08 nm
PDI of nanoemulsion after self-nanoemulsifying [4]: 0.665 ± 0.020

Molecule: CCc1c2c(nc3ccc(O)cc13)-c1cc3c(c(=O)n1C2)COC(=O)[C@]3(O)CC [SN-38]
Times more active than CPT11 [5]: 100–1000 times

Molecule: O=c1cc(-c2ccccc2)oc2cc(O)c(O)c(O)c12 [BA, Baicalein]
Dissolution from PC90C10P0 in simulated gastric acid solution with 1% Tween 80 ([2]; plateau at 0.5 h, 80 mg/g): not observed
Dissolution from PC90C10P0 in simulated gastric acid solution [2]: appeared to be over saturated
Solubility (loading amount) in 1 g of PC90C10P0 [3]: 80 mg/g
Mean droplet size of nanoemulsion after self-nanoemulsifying [4]: 171.0 ± 6.52 nm
PDI of nanoemulsion after self-nanoemulsifying [4]: 0.863 ± 0.087

Dissolution from PC90C10P0 in simulated gastric acid solution [2]: 100%
Solubility (loading amount) in 1 g of PC90C10P0 [3]: 200 mg/g
Mean droplet size of nanoemulsion after self-nanoemulsifying [4]: 102.1 ± 0.67 nm
PDI of nanoemulsion after self-nanoemulsifying [4]: 0.602 ± 0.031
Molecule: CC1(C)[C@@H](O[C@H]2O[C@H](C(=O)O)[C@@H](O)[C@H](O)[C@H]2O[C@@H]2O[C@H](C(=O)O)[C@@H](O)[C@H](O)[C@H]2O)CC[C@]2(C)[C@H]3C(=O)C=C4[C@@H]5C[C@@](C)(C(=O)O)CC[C@]5(C)CC[C@@]4(C)[C@]3(C)CC[C@@H]12 [GA, glycyrrhizic acid]

Molecule: silymarin [SM]
Solubility (loading amount) in 1 g of PC90C10P0 [3]: 130 mg/g

Molecule: CC1(C)[C@@H](O)CC[C@]2(C)[C@H]3C(=O)C=C4[C@@H]5C[C@@](C)(C(=O)O)CC[C@]5(C)CC[C@@]4(C)[C@]3(C)CC[C@@H]12 [GLA, glycyrrhetinic acid]
Dissolution from PC90C10P0 in simulated gastric acid solution [2]: 100%
Solubility (loading amount) in 1 g of PC90C10P0 [3]: 80 mg/g
Mean droplet size of nanoemulsion after self-nanoemulsifying [4]: 143.5 ± 0.04 nm
PDI of nanoemulsion after self-nanoemulsifying [4]: 0.559 ± 0.063
